# Data as given in patent publication US8802104B2, “Parathyroid hormone receptor activation and stem and progenitor cell expansion” (The General Hospital Corporation, priority 2002, dated 2014).
# Experiments:
# [1] = parameters: species or system C57Bl/6 mice; conditions: mouse, in vivo
# Procedure: For PTH administration, 6-8 week old wild type C57/B male mice were used. Rat PTH (1-34) (80 μg/Kg of body weight) was injected intraperitoneally 5×/week for 4 weeks (n=5). Control mice (n=4) were injected with an equivalent volume of vehicle. At the end of the treatment period, ionized serum calcium was measured by the Ciba/Corning 634 Ca^++/pH analyzer, and, after euthanasia, the hind limbs and forelimbs were dissected and utilized for cytologic and histologic analysis.
# [2] = tested on: peripheral blood cells; experiment: Complete blood count during cyclophosphamide chemotherapy cycles; assay type: in vivo, C57Bl/6 mice
# Procedure: (§1) Wild-type C57Bl/6 mice were treated with 5 mg of cyclophosphamide (Day 1). The day following injection of cyclophosphamide, mice received no treatment or were treated for 8 days with G-CSF (5 μg/day), 11 days with PTH (80 μg/kg/day) or a combination of G-CSF plus PTH. Mice that received a combination of both G-CSF and PTH received G-CSF treatment for 8 days and PTH treatment for 11 days. Following this treatment protocol, mice were injected with cyclophosphamide on Day 15 and treated with G-CSF, PTH or G-CSF and PTH as described above. The treatment protocol was then repeated for two subsequent cycles, as outlined in FIG. 7.
# During the course of the four treatment cycles, peripheral blood complete blood count (CBC) analysis was performed every 2 to 3 days. This analysis involved the collection of 100 μl of peripheral blood from the tail vein of the mice, which was subsequently analyzed on a HEMAVET 850FS (Drew Scientific). To avoid any deleterious effects from repeated tail bleeds, each individual mouse was only bled once per week.
# [3] = tested on: HSC pool in the bone marrow; experiment: HSC pool in bone marrow following chemotherapy (competitive transplant); assay type: in vivo, C57Bl/6 mice
# Procedure: as §1
# (§2) At the end of the four-cycle treatment with cyclophosphamide and G-CSF/PTH, the bone marrow was removed from the treated mice and competitive transplants into B6.SJL mice were performed to measure the maintenance of the HSC pool in the bone marrow. This involved mixing 5×10^5 BM cells from the treated C57Bl/6 mice (CD45.2) with 2.5×10^5 BM cells from the B6.SJL mice (CD45.1). These cells were then injected into lethally irradiated B6.SJL mice. Eighteen weeks following injection of the cells, peripheral blood was collected from the mice and the relative contribution of the HSCs from the treated animals was measured by flow cytometry for the CD45.2^+ cells. To assess the ability of the HSCs to be mobilized into the peripheral circulation, one week following treatment mice were mobilized with G-CSF (5 μg/day) for 5 days. Peripheral blood (300 μl) was collected from these mice and mixed with 2.5×10^5 BM cells from a B6.SJL mouse. These cells were injected into a lethally irradiated B6.SJL host. Eighteen weeks following injection of the cells, peripheral blood was collected from the mice and the relative contribution of the HSCs from the treated animals was measured by flow cytometry for the CD45.2^+ cells.
# [4] = tested on: primary murine stromal cell cultures; experiment: Alkaline phosphatase staining of primary stromal cell cultures; assay type: cell-based, mouse; conditions: after 14 days, PTH vs vehicle, FIG. 5b
# Procedure: LTC-IC assays were performed using wild-type stroma and hematopoietic cells. Rat PTH (1-34) (Bachem, Torrance, Calif.) or vehicle was added to each media change either during stroma establishment and/or during culture maintenance to a final concentration of 10^−7 M. Medium was changed every three days for two weeks or until stromal layers became confluent. For alkaline phosphatase staining, primary mononuclear cells obtained as described above from wild-type and or transgenic littermates were then cultured in 24-well plates at an initial concentration of 5×10^6 cells/ml. At 10 or 14 days after seeding, medium was suctioned off, and the adherent cells were gently rinsed twice in PBS. After fixation in 10% Neutral Formalin Buffer for 30 minutes at room temperature, alkaline phosphatase activity was determined histochemically by incubation for 45 minutes at RT with a mixture of 0.1 mg/ml naphthol AS-MX phosphate (Sigma), 0.5% N,N-dimethylformamide, 0.6 mg/ml red violet LB salt (Sigma) in 0.1 M Tris-HCl (pH 8.5). Alkaline phosphatase positive cells were counted at day 10 of culture, when the cultures were subconfluent and individual cells could be identified. For inhibition of γ-secretase activity, 30 μM of γ-secretase inhibitor II (Calbiochem) dissolved in DMSO was added to the long-term culture medium and LTC-IC assays were performed as described. […]
# [5] = tested on: HSCs in the peripheral circulation; experiment: G-CSF mobilization of HSCs into peripheral circulation after chemotherapy; assay type: in vivo, C57Bl/6 mice
# Procedure: as §1, §2
substance,measurement,setting,value
Rat PTH (1-34),hypercalcemia by serum calcium measurements,[1],no evidence of hypercalcemia
same,"WBC and NE counts following chemotherapy, effect of adding PTH",[2]; PTH 80 μg/kg/day 11 days added to G-CSF,not altered
same,hematological response to chemotherapy,"[2]; mice that did not receive G-CSF, PTH or not",no differences
same,HSC pool in the bone marrow following myelotoxic chemotherapy,"[3]; PTH, non-G-CSF treated animals",increased the HSC pool
same,HSC pool in the bone marrow following chemotherapy,[3]; concurrent treatment with PTH and G-CSF,retention of the HSC pool
same,alkaline phosphatase positive (osteoblastic) cells,[4],an increase in alkaline positive cells
same,mobilization of HSCs into the circulation with G-CSF,"[5]; no supportive G-CSF during chemotherapy, prior PTH treatment",increased with prior PTH treatment
same,mobilization of HSCs into the peripheral circulation,[5]; supportive G-CSF with concurrent PTH,partially reversed
